This is an account of results in US8461082B2, “Herbicidal composition and method for removing unwanted foliage” (priority 2006, dated 2013).

Data set [1] can be described thus: Examples 4-6 mixing in 1000 L commercial spray tank, dissolution and pH. In kind it is physicochemical.
Excerpt: A commercial “Silvan” Trailing Boom Spray fitted with a 1000 L tank was used for this experiment. The boom was 10 m wide.
The glyphosate material used was glyphosate acid (purity 95%) with a particle size where 95% can pass through a 1.2 mm sieve.
The spray tank was filled with 900 L of water. The recirculation or agitation system was driven by a power take off (“PTO”) from the tractor. The recirculation system consisted of a wet boom, submerged at the base of the tank with outlets to one side of the tank's midline. […] This is acceptable agitation by commercial spray boom standards.
With the PTO operating, a blend made from 0.979 kg of the surfactant Empigen BB and 1.57 kg of the monoethanolamine was poured into the tank and allowed to disperse for one minute.
4.26 kg of glyphosate acid was then tipped into the water.
A commercial “Silvan” brand Trailing Boom Spray fitted with a 1000 L tank was use for this experiment. The boom was 10 m wide.
Glyphosate acid (purity 95%) with a particle size where 95% can pass through a 0.5 mm sieve.
The spray tank was filled with 900 L of water. The recirculation or agitation system was driven by a PTO from the tractor. The recirculation system consisted of a wet boom at the base of the tank with outlets to one side of the tank's midline. […] This is adequate agitation by commercial spray boom standards.
4.26 kg of the milled glyphosate acid was tipped into the water.
A commercial “Silvan” Trailing Boom Spray fitted with a 1000 L tank was use for this experiment. The boom was 10 m wide.
Glyphosate acid (purity 95%) with a particle size where 95% can pass through a 1.2 mm sieve but not through a 0.5 mm sieve.
A blend made from 0.979 kg of the surfactant Empigen BB, a cocobetaine surfactant, and 1.57 kg of the monoethanolamine (MEA) was poured into the tank and allowed to disperse for one minute. A sample of water was collected and analysed for pH.
A plastic mesh insert with holes of 3-4 mm diameter was fitted into the mouth of the tank and 4.26 kg of glyphosate acid was tipped into the insert. […]
A sample of water was then taken and analysed for pH.
Data set [2] in a line: Dissolution of glyphosate acid on stirring into diluted Alkali Surfactant Blend in 20 L buckets. Particulars: bucket, at the higher concentrations. In kind it is physicochemical. The method, then:
Approximately 13 L of water was added to each of five 20 litre (“L”) plastic buckets (Table 1). Pack 1 was made by taking 37.5 parts monoethanolamine (“MEA”) and 25.3 parts of a cocobetaine surfactant called Empigen BB from Huntsman Chemical Company Australia. Pack 1 was also called the Alkaline-Surfactant Blend in this and later examples.
Glyphosate acid technical material with a purity of 95% and a particle size smaller than 1 mm (Pack 2) was then added to the buckets at the rates given in Table 1 and stirred with a plastic paddle until all the acid disappeared. This took 3-5 minutes at the higher concentrations.
Approximately 13 L of water was added to seven 20 L plastic buckets (Table 5). A blend of 37.5 parts MEA and 25.3 parts of the cocobetain surfactant Empigen BB was made to form the Alkali Surfactant Blend (Pack 1). Glyphosate acid (Pack 2) with a purity of 95% was then added to the buckets at the rates given in Table 5 and stirred with a plastic paddle until all the acid disappeared. This took 3-5 minutes at the higher concentrations.
Approximately 13 L of water was added to seven 20 L plastic buckets (Table 22). The Alkali Surfactant Blend of monoethanolamine and the cocamidopropyl betaine (Pack 1) was then added to the water at the rates given in the Table. […]

Some results are limits rather than exact numbers.

Consider `O=C(O)CNCP(=O)(O)O` [glyphosate acid, N-phosphonomethyl glycine], for which the “dissolution of glyphosate acid in spray tank” value in data set [1] (Example 4: 4.26 kg acid (95% passes 1.2 mm sieve) tipped into 900 L water with MEA/Empigen BB blend, agitated, no mesh insert) is on record as “almost all disappeared over the next 5 minutes”. The “time for glyphosate acid to disappear in spray tank” value in data set [1] (Example 5: 4.26 kg milled acid (95% passes 0.5 mm sieve) tipped into 900 L water with MEA/Empigen BB blend, agitated, no mesh insert) is no more than 10 min. Further, the “undissolved acid in spray tank after washing through mesh” value in data set [1] (Example 6: 4.26 kg acid washed through 3-4 mm plastic mesh insert over 1-2 minutes into 900 L water with MEA/Empigen BB blend) is recorded as “no evidence of undissolved acid”. For the same compound, the entries for the “time stirred until all the acid disappeared” value in data set [2] (about 13 L water with MEA/Empigen BB blend) and in data set [2] (about 13 L water with MEA/cocamidopropyl betaine blend) were 3 to 5 min and “approximately 3 minutes”, respectively.
